Measurements: ChEMBL document CHEMBL4393715, “Design, synthesis and biological evaluation of the thioether-containing lenalidomide analogs with anti-proliferative activities” (Eur J Med Chem, 2019)

Columns and labels:
[1] = Antiproliferative activity against human Mino cells measured after 72 hrs by CellTiter96 Aqueous non-radioactive cell proliferation assay; assay type: functional, cell-based
THP-1 = assay: Antiproliferative activity against human THP1 cells measured after 168 hrs by CellTiter96 Aqueous non-radioactive cell proliferation assay; assay type: functional, cell-based; settings: THP-1, 168 h
U-266 = assay: Antiproliferative activity against human U266 cells measured after 72 hrs by CellTiter96 Aqueous non-radioactive cell proliferation assay; assay type: functional, cell-based; settings: U-266, 72 h
Kasumi 1 = assay: Antiproliferative activity against human Kasumi-1 cells measured after 168 hrs by CellTiter96 Aqueous non-radioactive cell proliferation assay; assay type: functional, cell-based; settings: Kasumi 1, 168 h
JeKo-1 = assay: Antiproliferative activity against human JeKo1 cells measured after 72 hrs by CellTiter96 Aqueous non-radioactive cell proliferation assay; assay type: functional, cell-based; settings: JeKo-1, 72 h
Raji = assay: Antiproliferative activity against human Raji cells measured after 168 hrs by CellTiter96 Aqueous non-radioactive cell proliferation assay; assay type: functional, cell-based
PBMC [2] = assay: Cytotoxicity against human PBMC cells by CellTiter96 Aqueous non-radioactive cell proliferation assay; assay type: cell-based
MV4-11 = assay: Antiproliferative activity against human MV411 cells measured after 168 hrs by CellTiter96 Aqueous non-radioactive cell proliferation assay; assay type: functional, cell-based; settings: MV4-11, 168 h
Z-138 = assay: Antiproliferative activity against human Z138 cells measured after 72 hrs by CellTiter96 Aqueous non-radioactive cell proliferation assay; assay type: functional, cell-based; settings: Z-138, 72 h
RPMI-8226 [3] = assay: Antiproliferative activity against human RPMI8226 cells measured after 72 hrs by CellTiter96 Aqueous non-radioactive cell proliferation assay; assay type: functional, cell-based; settings: RPMI-8226, 72 h
MM1.S = assay: Antiproliferative activity against human MM1S cells measured after 168 hrs by CellTiter96 Aqueous non-radioactive cell proliferation assay; assay type: functional, cell-based
PBMC [4] = assay: Antiinflammatory activity in human PBMC cells assessed as reduction in LPS-induced TNF-alpha production preincubated for 1 hr followed by LPS addition and measured after 18 to 20 hrs by ELISA; assay type: functional, cell-based
[5] = AUC (infinity) in BALB/c mouse at 20 mg/kg, po and measured up to 24 hrs by LC-MS/MS analysis; assay type: ADME, organism-based; parameters: dose 20 mg/kg, route oral, time infinity; settings: in vivo
[6] = Toxicity in CB-17 SCID mouse xenografted with human RPMI8226 cells assessed as body weight at 60 mg/kg/day, po and measured after day 18 (reference value: 20.1 to 20.4 g); assay type: organism-based; settings: in vivo
[7] = Oral bioavailability in BALB/c mouse at 20 mg/kg and measured up to 24 hrs by LC-MS/MS analysis; assay type: ADME, organism-based; settings: in vivo
[8] = AUC (infinity) in BALB/c mouse at 5 mg/kg, iv and measured up to 24 hrs by LC-MS/MS analysis; assay type: ADME, organism-based; parameters: dose 5 mg/kg, route intravenous, time infinity; settings: in vivo
[9] = Cmax in BALB/c mouse at 20 mg/kg, po and measured up to 24 hrs by LC-MS/MS analysis; assay type: ADME, organism-based; parameters: dose 20 mg/kg, route oral; settings: in vivo
[10] = Clearance in BALB/c mouse at 5 mg/kg, iv and measured up to 24 hrs by LC-MS/MS analysis; assay type: ADME, organism-based; settings: in vivo
[11] = Tmax in BALB/c mouse at 20 mg/kg, po and measured up to 24 hrs by LC-MS/MS analysis; assay type: ADME, organism-based; settings: in vivo
[12] = Half-life in BALB/c mouse at 5 mg/kg, iv and measured up to 24 hrs by LC-MS/MS analysis; assay type: ADME, organism-based; settings: in vivo
[13] = Toxicity in CB-17 SCID mouse xenografted with human RPMI8226 cells assessed as mortality at 60 mg/kg/day, po and measured after day 18; assay type: organism-based; settings: in vivo
RPMI-8226 [14] = assay: Antitumour activity against human RPMI8226 cells xenografted in CB-17 SCID mouse assessed as tumour volume at 60 mg/kg/day, po measured after day 18 (reference value: 153 to 154 mm3); assay type: functional
[15] = Volume of distribution at steady state in BALB/c mouse at 5 mg/kg, iv and measured up to 24 hrs by LC-MS/MS analysis; assay type: ADME, organism-based; settings: in vivo, read-out: Vdss
RPMI-8226 [16] = assay: Antitumour activity against human RPMI8226 cells xenografted in CB-17 SCID mouse assessed as inhibition of tumour growth at 60 mg/kg/day, po measured twice a week for 21 days relative to control; assay type: functional; parameters: scale not given: the % may be the effect or the level left
[17] = MRT (infinity) in BALB/c mouse at 5 mg/kg, iv and measured up to 24 hrs by LC-MS/MS analysis; assay type: ADME, organism-based; settings: in vivo
RPMI-8226 [18] = assay: Antitumour activity against human RPMI8226 cells xenografted in CB-17 SCID mouse assessed as relative tumour volume at 60 mg/kg/day, po measured twice a week for 21 days; assay type: functional
[19] = Terminal elimination half life in BALB/c mouse at 20 mg/kg, po and measured up to 24 hrs by LC-MS/MS analysis; assay type: ADME, organism-based; settings: in vivo, read-out: LambdaZ (converted)

## O=C1CCC(N2Cc3c(cccc3[S+]([O-])Cc3ccc(CN4CCOCC4)cc3)C2=O)C(=O)N1 (configuration not stated)
[1]
  IC50: 100 nM

## COC(=O)c1ccc(CSc2cccc3c2CN(C2CCC(=O)NC2=O)C3=O)cc1 (configuration not stated)
[1]
  IC50: 7.4 nM

## O=C1CCC(N2Cc3c(SCc4ccc(F)cc4)cccc3C2=O)C(=O)N1 (configuration not stated)
THP-1
  IC50: > 20000 nM
U-266
  IC50: 2.6 nM
Kasumi 1
  IC50: > 20000 nM
JeKo-1
  IC50: > 20000 nM
Raji
  IC50: > 20000 nM
PBMC [2]
  IC50: > 20000 nM
[1]
  IC50: 2.6 nM
MV4-11
  IC50: > 20000 nM
Z-138
  IC50: > 20000 nM
RPMI-8226 [3]
  IC50: 40 nM
MM1.S
  IC50: 0.9 nM

## Cc1ccc(CSc2cccc3c2CN(C2CCC(=O)NC2=O)C3=O)cc1 (configuration not stated)
THP-1
  IC50: > 20000 nM
U-266
  IC50: 5.6 nM
Kasumi 1
  IC50: > 20000 nM
JeKo-1
  IC50: > 20000 nM
Raji
  IC50: > 20000 nM
PBMC [2]
  IC50: > 20000 nM
[1]
  IC50: 2.9 nM
MV4-11
  IC50: > 20000 nM
Z-138
  IC50: > 20000 nM
RPMI-8226 [3]
  IC50: 5.4 nM
MM1.S
  IC50: 0.4 nM

## CN1CCN(C(=O)c2ccc(CSc3cccc4c3CN(C3CCC(=O)NC3=O)C4=O)cc2)CC1 (configuration not stated)
[1]
  IC50: 3.4 nM

## Cc1cccc(CSc2cccc3c2CN(C2CCC(=O)NC2=O)C3=O)c1 (configuration not stated)
[1]
  IC50: 3.3 nM
MV4-11
  IC50: > 20000 nM
MM1.S
  IC50: 0.4 nM

## O=C1CCC(N2Cc3c(SCc4ccc(C(=O)N5CCOCC5)cc4)cccc3C2=O)C(=O)N1 (configuration not stated)
[1]
  IC50: 1.9 nM

## Nc1ccc2c(c1)CN(C1CCC(=O)NC1=O)C2=O (configuration not stated)
PBMC [4]
  IC50: > 100000 nM

## O=C1CC[C@H](N2Cc3c(OCc4ccc(CN5CCOCC5)cc4)cccc3C2=O)C(=O)N1 [IBERDOMIDE]
[5]
  AUC(0-inf): 1810 ng·h/mL
[6]
  Activity: 22.1 g
[7]
  bioavailability: 22.8%
[8]
  AUC(0-inf): 1940 ng·h/mL
[9]
  Cmax: 2060 ng/mL
[10]
  clearance: 43.5 mL/min/kg
[11]
  Tmax: 8.4 min
[12]
  half-life: 58.2 min
[13]
  Activity: Non-Toxic
RPMI-8226 [14]
  Activity: 517 mm3
[15]
  Vd: 1.9 L/kg
[1]
  IC50: 112 nM
RPMI-8226 [16]
  Activity: 27.07%
[17]
  MRT inf: 43.8 min
RPMI-8226 [18]
  fold change (FC): 3.42
MV4-11
  IC50: > 20000 nM
MM1.S
  IC50: 13 nM
[19]
  half-life: 54 min

## Cc1ccccc1CSc1cccc2c1CN(C1CCC(=O)NC1=O)C2=O (configuration not stated)
[1]
  IC50: 16.6 nM
MV4-11
  IC50: > 20000 nM
MM1.S
  IC50: 1.8 nM

## CCCCCSc1cccc2c1CN(C1CCC(=O)NC1=O)C2=O (configuration not stated)
[1]
  IC50: 160 nM
MV4-11
  IC50: > 20000 nM
MM1.S
  IC50: 1.1 nM

## Nc1ccc2c(c1)C(=O)N(C1CCC(=O)NC1=O)C2 (configuration not stated)
PBMC [4]
  IC50: > 100000 nM

## CSc1cccc2c1CN(C1CCC(=O)NC1=O)C2=O (configuration not stated)
[1]
  IC50: 930 nM
MV4-11
  IC50: > 20000 nM
MM1.S
  IC50: 2.1 nM

## CC1CC(C)CN(C(=O)c2ccc(CSc3cccc4c3CN(C3CCC(=O)NC3=O)C4=O)cc2)C1 (configuration not stated)
[1]
  IC50: 6 nM

## Nc1cccc2c1C(=O)N(C1CCC(=O)NC1=O)C2 (configuration not stated)
PBMC [4]
  IC50: > 100000 nM

## CCNC(=O)c1ccc(CSc2cccc3c2CN(C2CCC(=O)NC2=O)C3=O)cc1 (configuration not stated)
[1]
  IC50: 4.2 nM

## O=C1CCC(N2Cc3c(SCc4ccc(C(=O)N5CCCCC5)cc4)cccc3C2=O)C(=O)N1 (configuration not stated)
[5]
  AUC(0-inf): 34.1 ng·h/mL
[7]
  bioavailability: 2.9%
[8]
  AUC(0-inf): 424 ng·h/mL
[9]
  Cmax: 16.7 ng/mL
[10]
  clearance: 197 mL/min/kg
[11]
  Tmax: 30 min
[12]
  half-life: 42 min
[15]
  Vd: 5.31 L/kg
[1]
  IC50: 0.5 nM
[17]
  MRT inf: 27 min
[19]
  half-life: 84.6 min
